Measured values from ChEMBL document CHEMBL1201862, “PubChem BioAssay data set” (2004).
The source made the active and inactive calls.

Tests used:
Bcl-2-related protein A1 [1] = target: T1, Bcl-2-related protein A1 (Mus musculus, UniProt Q07440); experiment: Bfl-1 inhibitors blocking BH3 peptide binding, confirmation, biochemical, TR-FRET, mouse Bfl-1 (AID 621);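 further: TR-FRET binding of GST-Bfl-1 to FITC-labelled Bid peptide via terbium antibody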
T1 sequence (Q07440 whole entry): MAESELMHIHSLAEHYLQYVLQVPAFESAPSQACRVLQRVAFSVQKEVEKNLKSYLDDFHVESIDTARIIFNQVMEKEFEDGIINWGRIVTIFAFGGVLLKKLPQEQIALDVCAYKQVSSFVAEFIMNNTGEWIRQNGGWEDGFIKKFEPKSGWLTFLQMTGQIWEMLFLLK

Bcl-2-related protein A1 [2] = target: T1, Bcl-2-related protein A1; experiment: Bfl-1 binding inhibitors, SAR follow-up, biochemical, fluorescence polarization (AID 1070)
[3] = target: Glyceraldehyde-3-phosphate dehydrogenase (Homo sapiens, UniProt P04406)
Ion channel NompC [4] = target: T2, Ion channel NompC (Danio rerio, UniProt Q7T1G6); experiment: Fluorescence counterscreen assay for TRPML3 agonists: dose response cell-based high-throughput screening assay to identify agonists of the transient receptor potential channel N1 (TRPN1). [Related pubchem assays: 1526, 1424, 1448 ]; format: functional
Ion channel NompC [5] = target: T2, Ion channel NompC; experiment: Late stage counterscreen for the probe development effort to identify selective agonists of the Transient Receptor Potential Channels 3 (TRPML3): fluorescence-based cell-based dose response assay for TRPN1 agonists.; format: functional
Mucolipin-3 [6] = target: T3, Mucolipin-3 (Homo sapiens, UniProt Q8TDD5); experiment: Dose response cell-based high-throughput screening assay for agonists of the transient receptor potential channel ML3 (TRPML3). [Related pubchem assays: 1526, 1424, 1448 ]; format: functional
T3 sequence (Q8TDD5 whole entry): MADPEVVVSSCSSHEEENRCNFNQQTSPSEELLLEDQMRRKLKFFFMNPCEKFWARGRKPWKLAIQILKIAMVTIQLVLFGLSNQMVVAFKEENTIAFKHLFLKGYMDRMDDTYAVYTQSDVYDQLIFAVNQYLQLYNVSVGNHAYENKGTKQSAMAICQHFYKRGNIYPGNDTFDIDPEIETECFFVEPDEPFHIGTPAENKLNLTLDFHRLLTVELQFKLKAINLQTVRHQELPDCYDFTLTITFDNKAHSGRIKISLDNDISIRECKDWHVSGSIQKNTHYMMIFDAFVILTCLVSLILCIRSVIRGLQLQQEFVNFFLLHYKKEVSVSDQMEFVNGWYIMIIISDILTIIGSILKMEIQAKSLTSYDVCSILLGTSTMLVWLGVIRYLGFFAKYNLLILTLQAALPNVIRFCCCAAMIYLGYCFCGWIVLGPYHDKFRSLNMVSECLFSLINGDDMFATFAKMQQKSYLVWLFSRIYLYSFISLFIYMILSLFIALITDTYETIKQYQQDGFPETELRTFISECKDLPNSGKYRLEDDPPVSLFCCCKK

Mucolipin-3 [7] = target: T3, Mucolipin-3; experiment: TRPML3 agonist potency, dose response, cell-based, calcium fluorescence (AID 2510); format: functional
[8] = target: T4, Dual specificity protein phosphatase 6 (Rattus norvegicus, UniProt Q64346); experiment: MKP-3 phosphatase inhibitors, primary screen, biochemical, rat enzyme, in vitro (AID 425)
T4 sequence (Q64346 whole entry): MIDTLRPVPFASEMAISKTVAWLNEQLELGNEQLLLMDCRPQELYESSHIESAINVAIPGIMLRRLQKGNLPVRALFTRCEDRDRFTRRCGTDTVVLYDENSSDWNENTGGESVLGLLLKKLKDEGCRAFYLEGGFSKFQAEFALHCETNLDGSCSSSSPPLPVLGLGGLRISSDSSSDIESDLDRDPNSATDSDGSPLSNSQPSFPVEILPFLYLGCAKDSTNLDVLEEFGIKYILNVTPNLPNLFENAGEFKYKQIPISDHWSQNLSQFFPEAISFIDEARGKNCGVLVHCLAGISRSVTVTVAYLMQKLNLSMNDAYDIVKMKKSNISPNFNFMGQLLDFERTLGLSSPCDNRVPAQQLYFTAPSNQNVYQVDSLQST

[9] = target: T5, Heat shock factor protein 1 (Mus musculus, UniProt P38532); experiment: HSF1 potentiators in luciferase reporter cells, confirmation, cell-based, NIH3T3, luminescence, dose retest (AID 435004); format: functional;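 further: stress induced by proteasome inhibitor MG132 added 30 min after compound; luciferase reporter driven by HSF1 response element in NIH3T3 cells; actives raise luminescence as potentiators of the MG132 stress response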
T5 sequence (P38532 whole entry): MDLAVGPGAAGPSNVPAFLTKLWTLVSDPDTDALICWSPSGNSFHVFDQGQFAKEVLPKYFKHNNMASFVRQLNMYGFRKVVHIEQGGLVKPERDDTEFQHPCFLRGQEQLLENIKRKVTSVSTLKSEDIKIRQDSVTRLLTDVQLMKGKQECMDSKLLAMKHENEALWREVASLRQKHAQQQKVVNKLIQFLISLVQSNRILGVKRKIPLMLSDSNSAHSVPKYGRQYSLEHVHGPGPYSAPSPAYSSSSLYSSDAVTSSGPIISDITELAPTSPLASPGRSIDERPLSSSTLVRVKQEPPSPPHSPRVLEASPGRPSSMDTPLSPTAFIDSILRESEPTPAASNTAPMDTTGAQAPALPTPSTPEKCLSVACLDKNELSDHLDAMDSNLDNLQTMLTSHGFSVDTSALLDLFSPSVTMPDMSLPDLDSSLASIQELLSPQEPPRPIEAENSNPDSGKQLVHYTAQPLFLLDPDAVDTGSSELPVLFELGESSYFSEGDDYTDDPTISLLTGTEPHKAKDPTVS

[10] = Luminescence Cell-Based Dose Confirmation HTS to Identify Inhibitors of Polyadenylation.; format: functional
CHO-K1 = experiment: Counterscreen for antagonists of the orexin 1 receptor (OX1R; HCRTR1): Homogeneous time resolved fluorescence (HTRF)-based cell-based dose response assay to identify antagonists of the parental CHO-K1 cell line. [Related pubchem assays (depositor defined):AID434989, AID435008, AID463079, AID485270, AID492963, AID492964, AID492965, AID493232, AID504699, AID504701]; format: functional; details: Cricetulus griseus;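 further: potency for inhibition of ATP-stimulated IP1 production as antagonists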
Orexin receptor type 2 [11] = target: T6, Orexin receptor type 2 (Homo sapiens, UniProt O43614); experiment: Counterscreen assay for antagonists of the orexin 1 receptor (OX1R; HCRTR1): Fluorescence-based cell-based dose response assay for antagonists of the orexin 2 receptor (OX2R; HCRTR2), run by assay provider.; format: functional
T6 sequence (O43614 whole entry): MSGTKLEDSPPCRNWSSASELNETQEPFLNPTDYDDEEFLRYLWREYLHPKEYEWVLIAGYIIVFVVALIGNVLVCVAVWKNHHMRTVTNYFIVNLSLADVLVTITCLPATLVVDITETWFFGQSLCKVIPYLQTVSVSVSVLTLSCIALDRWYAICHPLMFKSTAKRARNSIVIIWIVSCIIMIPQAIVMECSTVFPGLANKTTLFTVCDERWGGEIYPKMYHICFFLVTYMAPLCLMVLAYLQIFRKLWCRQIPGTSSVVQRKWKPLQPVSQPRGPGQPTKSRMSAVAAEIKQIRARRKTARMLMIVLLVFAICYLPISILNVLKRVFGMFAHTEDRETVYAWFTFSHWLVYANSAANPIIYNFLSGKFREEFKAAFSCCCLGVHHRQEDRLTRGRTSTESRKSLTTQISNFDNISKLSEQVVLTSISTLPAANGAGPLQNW

Orexin receptor type 2 [12] = target: T6, Orexin receptor type 2; experiment: Counterscreen assay for antagonists of the orexin 1 receptor (OX1R; HCRTR1): Homogeneous Time Resolved Fluorescence (HTRF)-based cell-based dose response assay for antagonists of the orexin 2 receptor (OX2R; HCRTR2), run by assay provider.; format: functional
[13] = M. tuberculosis growth inhibition, HTS (AID 449762); format: functional
[14] = Counterscreen for antagonists of the orexin 1 receptor (OX1R; HCRTR1): Fluorescence-based cell-based high throughput dose response assay to identify antagonists of the parental CHO cell line. [Related pubchem assays (depositor defined):AID434989, AID435008, AID463079, AID485270, AID492963, AID492964, AID492965, AID493232, AID504699, AID504701]; format: functional
[15] = target: T7, Orexin/Hypocretin receptor type 1 (Homo sapiens, UniProt O43613); experiment: Fluorescence-based cell-based high throughput dose response assay for antagonists of the orexin 1 receptor (OX1R; HCRTR1). [Related pubchem assays (depositor defined):AID434989, AID435008, AID463079, AID485270, AID492963, AID492964, AID492965, AID493232, AID504717, AID504718]; format: functional
T7 sequence (O43613 whole entry): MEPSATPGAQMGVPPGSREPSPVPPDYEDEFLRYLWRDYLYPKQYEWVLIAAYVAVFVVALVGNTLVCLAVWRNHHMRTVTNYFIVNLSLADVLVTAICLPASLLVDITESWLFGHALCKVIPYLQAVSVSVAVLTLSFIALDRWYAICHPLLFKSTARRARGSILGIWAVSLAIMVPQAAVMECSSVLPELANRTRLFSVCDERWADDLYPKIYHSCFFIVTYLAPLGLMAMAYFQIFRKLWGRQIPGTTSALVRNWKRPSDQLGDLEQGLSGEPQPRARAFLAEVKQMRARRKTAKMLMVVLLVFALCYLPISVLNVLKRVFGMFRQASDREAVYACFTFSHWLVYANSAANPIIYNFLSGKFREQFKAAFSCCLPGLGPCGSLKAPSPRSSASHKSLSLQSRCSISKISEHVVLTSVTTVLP

[16] = target: T7, Orexin/Hypocretin receptor type 1; experiment: Homogeneous Time Resolved Fluorescence (HTRF)-based cell-based high throughput dose response assay for antagonists of the orexin 1 receptor (OX1R; HCRTR1). [Related pubchem assays (depositor defined):AID434989, AID435008, AID463079, AID485270, AID492963, AID492964, AID492965, AID493232, AID504717, AID504718]; format: functional
[17] = target: Sphingosine 1-phosphate receptor 3 (Homo sapiens, UniProt Q99500); experiment: Dose response cell-based high throughput screening assay for antagonists of the Sphingosine 1-Phosphate Receptor 3 (S1P3). [Related pubchem assays: 1429, 485 ]; format: functional
[18] = target: 5-hydroxytryptamine receptor 1E (Homo sapiens, UniProt P28566); experiment: Counterscreen assay for S1P3 antagonists: Dose response cell-based high throughput screening assay to identify antagonists of the 5-Hydroxytryptamine Receptor Subtype 1E (5HT1E). [Related pubchem assays: 1429, 485 ]; format: functional
Cytochrome P450 2C19 = Cytochrome P450 2C19 (Homo sapiens, UniProt P33261); experiment: qHTS Assay for Inhibitors and Substrates of Cytochrome P450 2C19. [Related pubchem assays: 410 ]; format: ADME; details: read-out: Potency
[19] = target: Aryl hydrocarbon receptor (Homo sapiens, UniProt P35869); experiment: Luminescence-based cell-based high throughput dose response assay for activators of the Aryl Hydrocarbon Receptor (AHR). [Related pubchem assays: 2796 (Primary screen (AHR activators in singlicate)), 2845 (Confirmation screen (AHR activators in triplicate)), 434939 (Counterscreen (PXR activators in triplicate)), 2804 (Summary (AHR activators))]; format: ADME
NADPH oxidase 1 = NADPH oxidase 1 (Homo sapiens, UniProt Q9Y5S8); format: functional, cell-based;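 further: Cell-based assay with luminescence read-out, IC50 derived from inhibitor dose-response curves; intracellular ROS from endogenous NOX1 in intact HT29 colon cancer cells; potency of inhibitors that lower the ROS luminescence signal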
[20] = target: Photoreceptor-specific nuclear receptor (Homo sapiens, UniProt Q9Y5X4); experiment: NR2E3 inverse agonists, dose response, biochemical, TR-FRET (AID 463256); format: functional
[21] = target: Peroxisome proliferator-activated receptor gamma/Nuclear receptor corepressor 2 (Homo sapiens, UniProt P37231+Q9Y618); experiment: Counterscreen for NR2E3 inverse agonists: TR-FRET-based biochemical high throughput dose response assay to identify inverse agonists of the interaction between peroxisome proliferator-activated receptor gamma (PPARg) and nuclear receptor co-repressor 2 (NCOR2).; format: functional

T2 sequence (Q7T1G6 whole entry): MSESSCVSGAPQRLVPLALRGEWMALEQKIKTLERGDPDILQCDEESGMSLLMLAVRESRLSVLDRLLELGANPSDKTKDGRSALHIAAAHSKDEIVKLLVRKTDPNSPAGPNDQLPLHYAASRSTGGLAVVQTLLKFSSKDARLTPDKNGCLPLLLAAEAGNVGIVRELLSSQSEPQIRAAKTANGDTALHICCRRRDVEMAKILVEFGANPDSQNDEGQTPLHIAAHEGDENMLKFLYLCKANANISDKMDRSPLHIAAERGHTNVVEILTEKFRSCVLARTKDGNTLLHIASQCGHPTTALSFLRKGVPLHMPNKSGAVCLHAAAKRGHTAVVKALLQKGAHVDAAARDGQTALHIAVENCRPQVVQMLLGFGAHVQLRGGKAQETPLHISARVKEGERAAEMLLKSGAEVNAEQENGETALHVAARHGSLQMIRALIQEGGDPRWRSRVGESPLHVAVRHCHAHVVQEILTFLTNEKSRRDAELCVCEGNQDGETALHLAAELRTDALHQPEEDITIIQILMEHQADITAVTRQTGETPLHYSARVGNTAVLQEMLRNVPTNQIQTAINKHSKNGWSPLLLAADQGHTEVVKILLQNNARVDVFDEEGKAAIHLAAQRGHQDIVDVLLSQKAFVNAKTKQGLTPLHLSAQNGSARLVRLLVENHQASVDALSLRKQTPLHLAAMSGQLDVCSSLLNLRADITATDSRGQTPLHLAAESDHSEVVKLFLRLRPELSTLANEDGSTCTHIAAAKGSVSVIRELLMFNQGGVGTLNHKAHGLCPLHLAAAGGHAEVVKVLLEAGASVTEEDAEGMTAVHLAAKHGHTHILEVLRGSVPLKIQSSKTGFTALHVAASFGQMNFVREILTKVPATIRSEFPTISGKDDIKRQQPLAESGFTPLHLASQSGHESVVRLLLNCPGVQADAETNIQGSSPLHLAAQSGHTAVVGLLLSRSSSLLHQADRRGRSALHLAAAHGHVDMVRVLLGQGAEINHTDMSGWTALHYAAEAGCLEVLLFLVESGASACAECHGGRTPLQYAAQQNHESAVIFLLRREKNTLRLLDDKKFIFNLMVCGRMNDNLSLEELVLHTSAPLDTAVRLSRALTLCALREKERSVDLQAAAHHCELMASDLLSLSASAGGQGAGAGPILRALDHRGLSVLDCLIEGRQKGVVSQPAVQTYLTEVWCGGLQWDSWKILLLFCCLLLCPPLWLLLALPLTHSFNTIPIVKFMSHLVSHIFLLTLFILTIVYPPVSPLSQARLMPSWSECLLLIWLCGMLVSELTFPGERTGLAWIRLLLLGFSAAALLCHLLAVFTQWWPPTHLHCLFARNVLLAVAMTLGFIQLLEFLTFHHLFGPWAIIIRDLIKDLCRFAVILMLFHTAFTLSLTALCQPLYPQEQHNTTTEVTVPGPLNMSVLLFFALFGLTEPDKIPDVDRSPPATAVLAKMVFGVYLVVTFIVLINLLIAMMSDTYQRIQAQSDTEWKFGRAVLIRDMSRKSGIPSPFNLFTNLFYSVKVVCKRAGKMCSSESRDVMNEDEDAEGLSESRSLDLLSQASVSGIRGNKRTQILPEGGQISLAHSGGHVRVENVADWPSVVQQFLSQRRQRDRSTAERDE
Cytochrome P450 2C19, sequence (P33261 whole entry): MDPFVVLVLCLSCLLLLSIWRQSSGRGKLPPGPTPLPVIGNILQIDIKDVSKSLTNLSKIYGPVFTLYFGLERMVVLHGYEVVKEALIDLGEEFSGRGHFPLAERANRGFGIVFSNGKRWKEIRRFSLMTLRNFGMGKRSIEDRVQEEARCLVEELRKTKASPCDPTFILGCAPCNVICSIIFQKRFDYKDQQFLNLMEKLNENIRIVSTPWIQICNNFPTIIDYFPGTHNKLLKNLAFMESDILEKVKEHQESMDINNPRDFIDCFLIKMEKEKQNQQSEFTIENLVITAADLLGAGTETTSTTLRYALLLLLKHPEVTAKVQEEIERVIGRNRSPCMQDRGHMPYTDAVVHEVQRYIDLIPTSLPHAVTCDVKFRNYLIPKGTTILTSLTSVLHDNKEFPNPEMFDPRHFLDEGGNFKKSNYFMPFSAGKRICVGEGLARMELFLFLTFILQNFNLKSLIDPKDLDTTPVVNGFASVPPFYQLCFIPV
5-hydroxytryptamine receptor 1E, sequence (P28566 whole entry): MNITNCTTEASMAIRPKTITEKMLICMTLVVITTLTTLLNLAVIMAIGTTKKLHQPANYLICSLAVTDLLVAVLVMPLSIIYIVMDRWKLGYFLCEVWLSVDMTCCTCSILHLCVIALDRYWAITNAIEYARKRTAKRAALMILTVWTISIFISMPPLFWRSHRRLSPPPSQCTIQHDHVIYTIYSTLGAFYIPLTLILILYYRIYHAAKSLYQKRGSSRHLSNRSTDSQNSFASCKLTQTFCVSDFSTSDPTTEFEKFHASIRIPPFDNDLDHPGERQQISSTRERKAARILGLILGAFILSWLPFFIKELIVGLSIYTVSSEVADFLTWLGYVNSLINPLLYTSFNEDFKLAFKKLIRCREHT
Aryl hydrocarbon receptor, sequence (P35869 whole entry): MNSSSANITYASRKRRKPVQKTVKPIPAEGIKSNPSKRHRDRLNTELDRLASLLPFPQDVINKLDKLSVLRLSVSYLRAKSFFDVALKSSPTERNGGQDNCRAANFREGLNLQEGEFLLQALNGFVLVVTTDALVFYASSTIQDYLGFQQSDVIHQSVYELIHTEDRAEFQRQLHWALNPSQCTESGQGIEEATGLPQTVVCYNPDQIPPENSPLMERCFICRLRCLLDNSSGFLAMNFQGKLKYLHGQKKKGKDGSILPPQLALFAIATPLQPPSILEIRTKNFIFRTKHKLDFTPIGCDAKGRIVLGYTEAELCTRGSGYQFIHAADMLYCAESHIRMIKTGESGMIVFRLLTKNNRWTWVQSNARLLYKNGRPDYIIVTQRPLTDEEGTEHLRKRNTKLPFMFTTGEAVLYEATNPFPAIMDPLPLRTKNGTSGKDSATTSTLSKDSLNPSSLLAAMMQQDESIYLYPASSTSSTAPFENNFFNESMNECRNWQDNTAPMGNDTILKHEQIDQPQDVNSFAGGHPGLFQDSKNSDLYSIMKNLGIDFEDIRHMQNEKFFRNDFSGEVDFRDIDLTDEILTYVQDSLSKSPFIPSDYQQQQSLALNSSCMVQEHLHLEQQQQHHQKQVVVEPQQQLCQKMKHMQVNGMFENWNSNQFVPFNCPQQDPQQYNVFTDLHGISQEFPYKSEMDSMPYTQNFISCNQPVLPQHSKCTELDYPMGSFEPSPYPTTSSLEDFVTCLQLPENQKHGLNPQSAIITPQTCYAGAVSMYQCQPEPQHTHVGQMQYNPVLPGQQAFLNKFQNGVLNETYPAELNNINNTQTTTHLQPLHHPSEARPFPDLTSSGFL
NADPH oxidase 1, sequence (Q9Y5S8 whole entry): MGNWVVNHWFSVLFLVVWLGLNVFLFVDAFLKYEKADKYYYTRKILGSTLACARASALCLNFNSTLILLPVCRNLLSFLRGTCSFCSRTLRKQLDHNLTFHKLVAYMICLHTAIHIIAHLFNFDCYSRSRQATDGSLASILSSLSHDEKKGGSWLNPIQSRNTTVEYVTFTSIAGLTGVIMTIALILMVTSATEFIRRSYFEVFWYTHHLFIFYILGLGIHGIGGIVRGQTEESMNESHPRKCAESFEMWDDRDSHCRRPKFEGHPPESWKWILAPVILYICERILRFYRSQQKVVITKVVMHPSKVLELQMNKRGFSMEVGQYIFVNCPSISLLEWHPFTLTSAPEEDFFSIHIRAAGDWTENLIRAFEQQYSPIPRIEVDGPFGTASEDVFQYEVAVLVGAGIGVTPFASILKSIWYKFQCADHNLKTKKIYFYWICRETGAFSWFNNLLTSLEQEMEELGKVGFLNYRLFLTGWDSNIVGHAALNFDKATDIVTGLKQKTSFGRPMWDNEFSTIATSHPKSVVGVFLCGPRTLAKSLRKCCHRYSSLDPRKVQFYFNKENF
Photoreceptor-specific nuclear receptor, sequence (Q9Y5X4 whole entry): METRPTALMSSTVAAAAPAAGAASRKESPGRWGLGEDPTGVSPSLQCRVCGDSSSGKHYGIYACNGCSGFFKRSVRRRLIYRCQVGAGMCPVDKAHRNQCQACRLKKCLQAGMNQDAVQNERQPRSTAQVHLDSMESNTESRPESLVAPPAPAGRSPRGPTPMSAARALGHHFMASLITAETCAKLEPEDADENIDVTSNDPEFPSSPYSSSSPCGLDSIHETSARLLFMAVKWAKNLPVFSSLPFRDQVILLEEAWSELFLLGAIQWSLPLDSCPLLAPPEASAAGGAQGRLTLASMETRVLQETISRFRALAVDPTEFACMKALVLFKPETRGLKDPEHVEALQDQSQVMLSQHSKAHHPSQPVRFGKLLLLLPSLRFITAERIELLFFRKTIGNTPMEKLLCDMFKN
Sphingosine 1-phosphate receptor 3, sequence (Q99500 whole entry): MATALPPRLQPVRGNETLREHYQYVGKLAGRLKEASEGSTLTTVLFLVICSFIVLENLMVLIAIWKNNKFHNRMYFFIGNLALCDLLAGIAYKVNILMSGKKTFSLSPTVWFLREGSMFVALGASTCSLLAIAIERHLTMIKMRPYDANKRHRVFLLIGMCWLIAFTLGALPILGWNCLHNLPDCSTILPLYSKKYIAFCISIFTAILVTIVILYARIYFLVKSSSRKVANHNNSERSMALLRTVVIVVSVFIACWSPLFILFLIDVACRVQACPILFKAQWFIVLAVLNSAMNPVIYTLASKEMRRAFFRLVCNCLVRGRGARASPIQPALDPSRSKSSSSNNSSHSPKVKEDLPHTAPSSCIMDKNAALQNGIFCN
Glyceraldehyde-3-phosphate dehydrogenase, sequence (P04406 whole entry): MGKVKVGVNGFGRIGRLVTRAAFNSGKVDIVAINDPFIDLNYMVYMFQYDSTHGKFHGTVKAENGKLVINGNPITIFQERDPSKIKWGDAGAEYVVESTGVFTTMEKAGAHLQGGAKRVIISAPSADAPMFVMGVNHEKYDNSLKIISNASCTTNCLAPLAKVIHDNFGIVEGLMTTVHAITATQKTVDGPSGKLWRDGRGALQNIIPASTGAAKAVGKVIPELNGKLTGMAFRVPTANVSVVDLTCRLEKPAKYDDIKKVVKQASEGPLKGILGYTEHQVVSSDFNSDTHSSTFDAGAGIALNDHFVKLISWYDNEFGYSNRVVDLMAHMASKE

SMILES: O=C1C(Cl)=C(NCc2ccccc2)C(=O)N1c1ccc(Cl)c(Cl)c1
- IC50 (Bcl-2-related protein A1 [1]): 73.7 µM (active)
- IC50 (Bcl-2-related protein A1 [2]): > 100 µM (not active)
- IC50 [3]: > 100 µM (not active)

SMILES: CCCOc1cc(C)c(Cl)cc1S(=O)(=O)N(CC)CC
- EC50 (Ion channel NompC [4]): > 29.9 µM (not active)
- EC50 (Ion channel NompC [5]): > 29.9 µM (not active)
- EC50 (Mucolipin-3 [6]): 1.6 µM (active)
- EC50 (Mucolipin-3 [7]): 4.72 µM (active)

SMILES: [O-]/[N+](=C\c1ccc(OC(F)F)cc1)c1ccccc1
- IC50 [8]: > 100 µM (not active)
- EC50 [9]: > 260 µM (inactive)

SMILES: CC(NC(=O)c1ccc(Br)cc1Br)c1ccccc1 (centres undefined)
- EC50 [10]: > 120 µM (not active)

SMILES: N#C/C(=C1\CCCN1)c1nc(-c2ccccc2)cs1
- IC50 (CHO-K1): > 66.2 µM (inactive)
- IC50 (Orexin receptor type 2 [11]): > 88.8 µM (inactive)
- IC50 (Orexin receptor type 2 [12]): > 50 µM (inactive)
- IC50 [13]: > 100 µM (active)
- IC50 [14]: > 49.8 µM (inactive)
- IC50 [15]: 7.67 µM (active)
- IC50 [16]: 2.44 µM (active)

SMILES: O=C(CSc1nnc(-c2ccc(Br)o2)n1Cc1ccccc1)c1ccccc1F
- IC50 [17]: > 50 µM (not active)
- IC50 [18]: > 50 µM (not active)

SMILES: CC(C)C[C@@H](CC(=O)N[C@H](CC(=O)N[C@@H]1CCNC[C@H]1C(=O)N[C@H](CC(=O)N[C@@H](CCC(=O)O)CC(=O)O)Cc1ccccc1)C(C)C)NC(=O)[C@@H]1CCCC[C@H]1N
- AC50 (Cytochrome P450 2C19): 39.8 µM (inconclusive)

SMILES: CCOc1ccc(-c2cc(C)n3nc(C(N)=O)cc3n2)cc1
- EC50 [19]: 2.63 µM (active)

SMILES: COc1ccc2c(Cl)c(C(=O)Oc3ccccc3Cl)sc2c1
- IC50 (NADPH oxidase 1): > 17 µM (not active)

SMILES: Cc1cc(=O)oc2cc(OCC(=O)NCCc3c[nH]c4ccc(F)cc34)ccc12
- IC50 [20]: 6.11 µM (active)
- IC50 [21]: 8.78 µM (active)
